From patent US20240228488A1 (TAKEDA PHARMACEUTICAL COMPANY LIMITED, priority 2021, published 2024)

How the values were obtained:
[1] = biological target: human activated kallikrein enzyme (Homo sapiens, UniProt P03952); assay: Plasma kallikrein inhibition, fluorogenic PFR-AMC substrate, 500 pM activated kallikrein format; format: biochemical; details: 500 pM activated kallikrein, 300 uM PFR-AMC, 30 min preincubation, 10 min reaction; read-out: Primary Dose Response Assay: Average EC50
Method in brief: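 High-enzyme format of the fluorogenic peptide assay, with EC50 taken from AMC signal: 500 pM activated kallikrein, 300 uM Pro-Phe-Arg-AMC, 30 min compound preincubation and 10 min reaction, all at room temperature, pH 7.5.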

plasma kallikrein = biological target: T1, plasma kallikrein (Homo sapiens, UniProt P03952); assay: Neat human plasma assay, FXIIa contact pathway-activated, PFR-AMC substrate; format: biochemical; details: citrated human plasma 78% final, 10 nM human FXIIa, 100 μM PFR-AMC; read-out: Human Plasma Assay: IC90
T1 construct: from tissue
T1 sequence (P03952 391-638 limits assumed): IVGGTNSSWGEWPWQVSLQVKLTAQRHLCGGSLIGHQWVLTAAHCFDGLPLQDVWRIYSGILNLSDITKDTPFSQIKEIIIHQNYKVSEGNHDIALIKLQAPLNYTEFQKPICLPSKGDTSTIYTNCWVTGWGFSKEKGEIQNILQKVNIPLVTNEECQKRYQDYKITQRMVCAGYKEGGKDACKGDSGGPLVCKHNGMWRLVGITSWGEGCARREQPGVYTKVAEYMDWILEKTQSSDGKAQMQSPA
T1 sequence (P03952 20-390 partner limits assumed): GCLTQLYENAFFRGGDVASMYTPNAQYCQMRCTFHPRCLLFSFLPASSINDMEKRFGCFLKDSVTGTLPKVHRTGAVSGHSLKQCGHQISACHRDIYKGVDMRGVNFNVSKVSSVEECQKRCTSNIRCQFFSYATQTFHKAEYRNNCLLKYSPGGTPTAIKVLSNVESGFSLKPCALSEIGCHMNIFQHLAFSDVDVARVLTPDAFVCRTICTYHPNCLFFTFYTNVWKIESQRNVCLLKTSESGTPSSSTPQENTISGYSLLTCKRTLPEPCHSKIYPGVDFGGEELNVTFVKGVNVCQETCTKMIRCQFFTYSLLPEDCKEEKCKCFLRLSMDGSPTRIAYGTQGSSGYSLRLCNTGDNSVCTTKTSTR
Method: To analyze inhibition of plasma kallikrein in an ex vivo setting, the potency of compounds was measure in contact pathway-activated plasma assays. In a fluorogenic peptide substrate assay, test compounds dissolved in DMSO were added to sodium citrate collected human or rat plasma in a 96-well microplate. Alternatively, citrated plasma was collected from rats administered the compounds orally or by IV. 10 nM of human FXIIa (Enzyme Research Laboratories) diluted in pKal buffer (20 mM Tris-HCl, pH 7.5, 150 mM NaCl, 1 mM EDTA, 0.1% PEG-8000, and 0.1% Triton X-100) was added to the plasma, followed by the 100 μM of the profluorescent, synthetic plasma kallikrein substrate PFR-AMC (also diluted in pKal buffer). Final plasma concentration in the reaction was 78%. Fluorescence was immediately monitored by excitation/emission wavelengths of 360 nm/480 nm respectively over a period of 5 minutes in a microplate reader. The resulting linear increase in fluorescence emission (reflecting pKal proteolysis of PFR-AMC substrate) was fit to extract a proteolytic rate (fluorescent units over time), and this rate was subsequently plotted against compound inhibitor concentration. Resulting plots were fit to a standard 4-parameter IC50/IC90 equation to determine min/max values, IC50/90, and slope. All experimental steps were performed at room temperature. Table 50 provides results of the assay.

human activated kallikrein enzyme, sequence (P03952 391-638 limits assumed): as the sequence (P03952 391-638 limits assumed) above
human activated kallikrein enzyme, sequence (P03952 20-390 partner limits assumed): as the sequence (P03952 20-390 partner limits assumed) above

| EC50 [1] [nM] | IC90 (plasma kallikrein) [nM] | Compound |
| --- | --- | --- |
| < 1 | > 48000 | O=C(Nc1cc(NCc2cn3cc(C4CC4)ccc3n2)ccn1)[C@H]1C[C@@H]1c1cc(Cl)ccc1[N+](=O)[O-] (racemic) [Example I-223, rac-(1S*,2S*)-2-(5-chloro-2-nitrophenyl)-N-(4-(((6-cyclopropylimidazo[1,2-a]pyridin-2-yl)methyl)amino)pyridin-2-yl)cyclopropane-1-carboxamide] |
| < 1 | 400 to 1500 | CN1C(=O)CN(c2cc(C3CC3)cn3cc(CNc4cc(NC(=O)[C@H]5C[C@@H]5c5nccc(CF)n5)ncn4)nc23)C1=O (racemic) [Example I-163, rac-(1S*,2S*)-N-(6-(((6-cyclopropyl-8-(3-methyl-2,4-dioxoimidazolidin-1-yl)imidazo[1,2-a]pyridin-2-yl)methyl)amino)pyrimidin-4-yl)-2-(4-(fluoromethyl)pyrimidin-2-yl)cyclopropane-1-carboxamide] |
| < 1 | < 400 | CCN1CCN(c2cc(C3CC3)cn3cc(CNc4ccnc(NC(=O)[C@H]5C[C@@H]5c5cccc(Cl)c5)c4)nc23)CC1 [Example I-234, (1S,2S)-2-(3-chlorophenyl)-N-(4-(((6-cyclopropyl-8-(4-ethylpiperazin-1-yl)imidazo[1,2-a]pyridin-2-yl)methyl)amino)pyridin-2-yl)cyclopropane-1-carboxamide] |
| < 1 | 1500 to 10000 | CN1CCN(c2cc(C3CC3)cn3cc(CNc4cc(NC(=O)[C@H]5C[C@@H]5c5cc(Cl)ccn5)ncn4)nc23)CC1 (racemic) [Example I-192, rac-(1S*,2S*)-2-(4-chloropyridin-2-yl)-N-(6-(((6-cyclopropyl-8-(4-methylpiperazin-1-yl)imidazo[1,2-a]pyridin-2-yl)methyl)amino)pyrimidin-4-yl)cyclopropane-1-carboxamide] |
| < 1 | 400 to 1500 | O=C(Nc1cc(NCc2cn3cc(C4CC4)cc(N4CCOC4=O)c3n2)ncn1)[C@H]1C[C@@H]1c1cc(Cl)ccn1 (racemic) [Example I-173, rac-(1S*,2S*)-2-(4-chloropyridin-2-yl)-N-(6-(((6-cyclopropyl-8-(2-oxooxazolidin-3-yl)imidazo[1,2-a]pyridin-2-yl)methyl)amino)pyrimidin-4-yl)cyclopropane-1-carboxamide] |
| 1 to 10 | 1500 to 10000 | CN1CCC(Oc2cc(C3CC3)cn3cc(CNc4cc(NC(=O)[C@H]5C[C@@H]5c5cccc(Cl)c5)ncn4)nc23)C1=O (stereo partly drawn) [Example I-147, (1S,2S)-2-(3-chlorophenyl)-N-(6-(((6-cyclopropyl-8-((1-methyl-2-oxopyrrolidin-3-yl)oxy)imidazo[1,2-a]pyridin-2-yl)methyl)amino)pyrimidin-4-yl)cyclopropane-1-carboxamide] |
| 1 to 10 | 1500 to 10000 | CN(C)S(=O)(=O)c1cc(C2CC2)cn2cc(CNc3cc(NC(=O)[C@H]4C[C@@H]4c4cccc(Cl)c4)ncn3)nc12 [Example I-151, (1S,2S)-2-(3-chlorophenyl)-N-(6-(((6-cyclopropyl-8-(N,N-dimethylsulfamoyl)imidazo[1,2-a]pyridin-2-yl)methyl)amino)pyrimidin-4-yl)cyclopropane-1-carboxamide] |

More lines, now with the values behind:

| Compound | EC50 [1] [nM] | IC90 (plasma kallikrein) [nM] |
| --- | --- | --- |
| Cc1ccnc([C@H]2C[C@@H]2C(=O)Nc2cc(NCc3cn4cc(C5CC5)cc(N5CC6CC6C5=O)c4n3)ncn2)n1 (relative stereo) [Example 317, rac-(1S*,2S*)—N-(6-(((6-cyclopropyl-8-(2-oxo-3-azabicyclo[3.1.0]hexan-3-yl)imidazo[1,2-a]pyridin-2-yl)methyl)amino)pyrimidin-4-yl)-2-(4-methylpyrimidin-2-yl)cyclopropane-1-carboxamide] | < 1 | 1500 to 10000 |
| O=C(Nc1cc(NCc2cn3cc(C4CC4)cc(N4CCN5CCC4C5)c3n2)ncn1)[C@H]1C[C@@H]1c1cccc(Cl)c1 (stereo partly drawn) [Example I-11, (1S,2S)-N-(6-(((8-(1,4-diazabicyclo[3.2.1]octan-4-yl)-6-cyclopropylimidazo[1,2-a]pyridin-2-yl)methyl)amino)pyrimidin-4-yl)-2-(3-chlorophenyl)cyclopropane-1-carboxamide] | 1 to 10 | 1500 to 10000 |
| O=C(Nc1cc(N2C[C@@H](O)C[C@@H]2c2cn3cc(C4CC4)cc(N4CCOC4=O)c3n2)ncn1)[C@H]1C[C@@H]1c1cccc(Cl)c1 [Example 479, (1S,2S)-2-(3-chlorophenyl)-N-(6-((2R,4S)-2-(6-cyclopropyl-8-(2-oxooxazolidin-3-yl)imidazo[1,2-a]pyridin-2-yl)-4-hydroxypyrrolidin-1-yl)pyrimidin-4-yl)cyclopropane-1-carboxamide] | 1 to 10 | 1500 to 10000 |
| O=C(Nc1cc(NCc2cn3cc(C4CC4)cc(CCO)c3n2)ccn1)[C@H]1C[C@@H]1c1cccc(Cl)c1 [Example 292, (1S,2S)-2-(3-chlorophenyl)-N-(4-(((6-cyclopropyl-8-(2-hydroxyethyl)imidazo[1,2-a]pyridin-2-yl)methyl)amino)pyridin-2-yl)cyclopropane-1-carboxamide] | < 1 | 1500 to 10000 |
| CC(=O)N(C)c1cc(C2CC2)cn2cc(CNc3cc(NC(=O)[C@H]4C[C@@H]4c4cccc(Cl)c4)ncn3)nc12 [Example 274, (1S,2S)-2-(3-chlorophenyl)-N-(6-(((6-cyclopropyl-8-(N-methylacetamido)imidazo[1,2-a]pyridin-2-yl)methyl)amino)pyrimidin-4-yl)cyclopropane-1-carboxamide] | 1 to 10 | 1500 to 10000 |
| O=C(Nc1cc(NCc2cn3cc(C4CC4)cc(N4CCN(CC5CC5)CC4)c3n2)ccn1)[C@H]1C[C@@H]1c1cccc(Cl)c1 [Example 601, (1S,2S)-2-(3-chlorophenyl)-N-(4-(((6-cyclopropyl-8-(4-(cyclopropylmethyl)piperazin-1-yl)imidazo[1,2-a]pyridin-2-yl)methyl)amino)pyridin-2-yl)cyclopropane-1-carboxamide] | < 1 | 400 to 1500 |
| N#CCCc1cc(C2CC2)cn2cc(CNc3ccnc(NC(=O)[C@H]4C[C@@H]4c4cccc(Cl)c4)c3)nc12 (racemic) [Example 87, rac-(1S*,2S*)-2-(3-chlorophenyl)-N-(4-(((8-(2-cyanoethyl)-6-cyclopropylimidazo[1,2-a]pyridin-2-yl)methyl)amino)pyridin-2-yl)cyclopropane-1-carboxamide] | 1 to 10 | 10000 to 48000 |
| Cc1ccnc([C@H]2C[C@@H]2C(=O)Nc2cc(NCc3cn4cc(C5CC5)cc(N5CCCC5=O)c4n3)ncn2)n1 (racemic) [Example 389, rac-(1S*,2S*)-N-(6-(((6-cyclopropyl-8-(2-oxopyrrolidin-1-yl)imidazo[1,2-a]pyridin-2-yl)methyl)amino)pyrimidin-4-yl)-2-(4-methylpyrimidin-2-yl)cyclopropane-1-carboxamide] | < 1 | 400 to 1500 |
| Cc1ccnc([C@H]2C[C@@H]2C(=O)Nc2cc(NCc3cn4cc(C5CC5)cc(N5CCCC5=O)c4n3)ncn2)n1 [Example 377, (1S,2S)-N-(6-(((6-cyclopropyl-8-(2-oxopyrrolidin-1-yl)imidazo[1,2-a]pyridin-2-yl)methyl)amino)pyrimidin-4-yl)-2-(4-methylpyrimidin-2-yl)cyclopropane-1-carboxamide] | < 1 | 400 to 1500 |
| CN(C)C1CCN(c2cc(C3CC3)cn3cc(CNc4ccnc(NC(=O)[C@H]5C[C@@H]5c5cccc(Cl)c5)c4)nc23)C1 (stereo partly drawn) [Example I-25, (1S,2S)-2-(3-chlorophenyl)-N-(4-(((6-cyclopropyl-8-(3-(dimethylamino)pyrrolidin-1-yl)imidazo[1,2-a]pyridin-2-yl)methyl)amino)pyridin-2-yl)cyclopropane-1-carboxamide] | < 1 | 400 to 1500 |
| Cc1cccc([C@H]2C[C@@H]2C(=O)Nc2cc(NCc3cn4cc(C5CC5)cc(N5CC(=O)N(C)C5=O)c4n3)ncn2)n1 (racemic) [Example 500, rac-(1S*,2S*)-N-(6-(((6-cyclopropyl-8-(3-methyl-2,4-dioxoimidazolidin-1-yl)imidazo[1,2-a]pyridin-2-yl)methyl)amino)pyrimidin-4-yl)-2-(6-methylpyridin-2-yl)cyclopropane-1-carboxamide] | < 1 | 400 to 1500 |
| CC(O)c1cc(C2CC2)cn2cc(CNc3cc(NC(=O)[C@H]4C[C@@H]4c4cccc(Cl)c4)ncn3)nc12 (stereo partly drawn) [Example 281, (1S,2S)-2-(3-chlorophenyl)-N-(6-(((6-cyclopropyl-8-(1-hydroxyethyl)imidazo[1,2-a]pyridin-2-yl)methyl)amino)pyrimidin-4-yl)cyclopropane-1-carboxamide] | 1 to 10 | 10000 to 48000 |
